The values that follow come from BindingDB's records for doi:10.1111/cbdd.12686 (Jamia Hamdard, 2016).

Where only a bound is given, the exact number is not on record here.

In this assay the target is Xanthine dehydrogenase/oxidase (Bos taurus, UniProt P80457). The assay can be described thus: Xanthine Oxidase (XO) Assay. The following applies: pH 7.4.
Chain of Xanthine dehydrogenase/oxidase (P80457 whole entry): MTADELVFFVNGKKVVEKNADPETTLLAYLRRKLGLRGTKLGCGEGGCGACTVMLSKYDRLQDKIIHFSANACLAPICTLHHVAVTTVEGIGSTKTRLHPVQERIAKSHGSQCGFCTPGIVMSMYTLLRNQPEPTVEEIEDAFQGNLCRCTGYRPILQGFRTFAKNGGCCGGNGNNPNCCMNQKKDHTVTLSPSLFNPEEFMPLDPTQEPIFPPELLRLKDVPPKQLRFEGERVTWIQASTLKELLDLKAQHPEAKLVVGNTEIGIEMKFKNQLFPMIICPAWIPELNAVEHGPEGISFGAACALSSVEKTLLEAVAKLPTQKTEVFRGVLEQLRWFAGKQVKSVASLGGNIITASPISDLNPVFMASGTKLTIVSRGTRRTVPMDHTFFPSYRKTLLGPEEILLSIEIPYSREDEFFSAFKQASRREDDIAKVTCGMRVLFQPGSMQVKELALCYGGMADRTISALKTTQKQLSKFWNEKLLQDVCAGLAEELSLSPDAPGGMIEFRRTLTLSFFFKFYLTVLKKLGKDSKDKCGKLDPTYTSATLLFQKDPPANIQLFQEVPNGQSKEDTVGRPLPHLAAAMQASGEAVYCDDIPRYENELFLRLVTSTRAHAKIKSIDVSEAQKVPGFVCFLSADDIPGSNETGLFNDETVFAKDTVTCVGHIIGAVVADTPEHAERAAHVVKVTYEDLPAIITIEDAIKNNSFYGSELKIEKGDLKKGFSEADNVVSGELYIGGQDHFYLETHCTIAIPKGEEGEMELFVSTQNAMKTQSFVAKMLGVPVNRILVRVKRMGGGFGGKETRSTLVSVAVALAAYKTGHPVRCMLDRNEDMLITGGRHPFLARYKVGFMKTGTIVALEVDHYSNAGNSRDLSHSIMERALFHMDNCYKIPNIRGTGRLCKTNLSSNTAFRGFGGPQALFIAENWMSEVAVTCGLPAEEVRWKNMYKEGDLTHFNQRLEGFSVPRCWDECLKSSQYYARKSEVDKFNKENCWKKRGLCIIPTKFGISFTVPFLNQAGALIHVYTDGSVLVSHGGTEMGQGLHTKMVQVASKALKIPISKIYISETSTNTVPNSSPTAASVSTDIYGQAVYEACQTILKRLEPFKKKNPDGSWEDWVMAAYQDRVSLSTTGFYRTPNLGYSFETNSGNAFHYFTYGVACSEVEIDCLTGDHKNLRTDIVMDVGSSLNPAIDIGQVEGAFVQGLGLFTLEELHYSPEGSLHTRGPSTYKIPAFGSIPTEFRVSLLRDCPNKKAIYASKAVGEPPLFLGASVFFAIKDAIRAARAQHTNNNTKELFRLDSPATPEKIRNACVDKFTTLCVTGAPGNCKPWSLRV
A word on the IC50: it is the point on the concentration scale where inhibition reaches its midpoint. A higher IC50 goes with weaker potency. `Cc1nc(NCc2ccc(Cl)cc2)sc1C(=O)O` [2-{[(4-chlorophenyl)methyl]amino}-4-methyl-1,3-thiazole-5-carboxylic acid (5b)] displayed an IC50 of over 100 µM.

Consider `COc1ccc(CNc2nc(C)c(C(=O)O)s2)cc1` [2-{[(4-methoxyphenyl)methyl]amino}-4-methyl-1,3-thiazole-5-carboxylic acid (5g)], for which the IC50 is over 100 µM.

Molecule `Cc1ccccc1CNc1nc(C)c(C(=O)O)s1` [4-methyl-2-{[(2-methylphenyl)methyl]amino}-1,3-thiazole-5-carboxylic acid (5k)] came in with an IC50 of 3.6 µM.

`Cc1nc(NCc2ccc(O)cc2)sc1C(=O)O` [2-{[(4-hydroxyphenyl)methyl]amino}-4-methyl-1,3-thiazole-5-carboxylic acid (5f)] had an IC50 of 21.5 µM.

Turning to `Cc1nc(NCc2ccccc2)sc1C(=O)O` [2-(Benzylamino)-4-methyl-1,3-thiazole-5-carboxylic acid (5a)], it took 98.1 µM to reach half-maximal inhibition (IC50).

In the case of `Cc1nc(NCc2ccc(F)cc2)sc1C(=O)O` [2-{[(4-fluorophenyl)methyl]amino}-4-methyl-1,3-thiazole-5-carboxylic acid (5c)], the concentration for half-maximal inhibition (IC50) was determined as 30.3 µM.

Molecule `Cc1nc(NCc2ccc(O)c(O)c2)sc1C(=O)O` [2-{[(3,4-dihydroxyphenyl)methyl]amino}-4-methyl-1,3-thiazole-5-carboxylic acid (5p)] registered an IC50 of 60.2 µM.

For `Cc1nc(NCc2ccc(Cl)cc2Cl)sc1C(=O)O` [2-{[(2,4-dichlorophenyl)methyl]amino}-4-methyl-1,3-thiazole-5-carboxylic acid (5l)], the IC50 amounted to 8.1 µM.

Take `Cc1nc(NCc2ccccc2Cl)sc1C(=O)O` [2-{[(2-chlorophenyl)methyl]amino}-4-methyl-1,3-thiazole-5-carboxylic acid (5j)]: the IC50 was found to be 9.9 µM.

`Cc1nc(NCc2ccc(Br)cc2)sc1C(=O)O` [2-{[(4-bromophenyl)methyl]amino}-4-methyl-1,3-thiazole-5-carboxylic acid (5d)] gave an IC50 of 43.2 µM.

The molecule `Cc1nc(NCc2ccccc2O)sc1C(=O)O` [2-{[(2-hydroxyphenyl)methyl]amino}-4-methyl-1,3-thiazole-5-carboxylic acid (5m)] showed an IC50 of over 100 µM.

`Cc1nc(NCc2ccccc2Br)sc1C(=O)O` [2-{[(2-bromophenyl)methyl]amino}-4-methyl-1,3-thiazole-5-carboxylic acid (5i)]: the half-inhibitory concentration (IC50) is over 100 µM.

With `COc1ccccc1CNc1nc(C)c(C(=O)O)s1` [2-{[(2-methoxyphenyl)methyl]amino}-4-methyl-1,3-thiazole-5-carboxylic acid (5n)], the IC50 was 14.7 µM.

Molecule `Cc1ccc(CNc2nc(C)c(C(=O)O)s2)cc1` [4-methyl-2-{[(4-methylphenyl)methyl]amino}-1,3-thiazole-5-carboxylic acid (5e)] yielded an IC50 of over 100 µM.
